# Test results as given in ChEMBL document CHEMBL5329194, “Design, Synthesis, and Evaluation of 18F-Labeling CYP1B1 PET Tracer Based on 2-Phenylquinazolin” (Bioorg Med Chem Lett, 2023).
# Assays:
# Type in all cases: ADME
# Cytochrome P450 1B1 = biological target: T1, Cytochrome P450 1B1 (Homo sapiens, UniProt Q16678); assay: Inhibition of CYP1B1 (unknown origin) by EROD assay
# T1 sequence (Q16678 whole entry): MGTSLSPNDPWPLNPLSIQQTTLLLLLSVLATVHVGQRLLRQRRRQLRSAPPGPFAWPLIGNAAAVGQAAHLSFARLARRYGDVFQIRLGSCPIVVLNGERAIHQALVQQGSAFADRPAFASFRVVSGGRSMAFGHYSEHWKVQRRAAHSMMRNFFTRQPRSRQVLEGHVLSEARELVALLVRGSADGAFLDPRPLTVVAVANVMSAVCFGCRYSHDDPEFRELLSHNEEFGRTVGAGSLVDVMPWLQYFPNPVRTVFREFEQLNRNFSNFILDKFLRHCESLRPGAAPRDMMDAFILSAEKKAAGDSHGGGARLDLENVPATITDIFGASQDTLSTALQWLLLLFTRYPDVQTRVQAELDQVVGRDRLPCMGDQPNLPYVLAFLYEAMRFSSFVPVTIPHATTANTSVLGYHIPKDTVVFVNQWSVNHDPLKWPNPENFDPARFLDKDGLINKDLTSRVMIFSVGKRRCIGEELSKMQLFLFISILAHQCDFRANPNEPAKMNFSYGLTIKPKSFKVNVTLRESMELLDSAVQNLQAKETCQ
# Cytochrome P450 1A1 = biological target: T2, Cytochrome P450 1A1 (Homo sapiens, UniProt P04798); assay: Inhibition of CYP1A1 (unknown origin)
# T2 sequence (P04798 whole entry): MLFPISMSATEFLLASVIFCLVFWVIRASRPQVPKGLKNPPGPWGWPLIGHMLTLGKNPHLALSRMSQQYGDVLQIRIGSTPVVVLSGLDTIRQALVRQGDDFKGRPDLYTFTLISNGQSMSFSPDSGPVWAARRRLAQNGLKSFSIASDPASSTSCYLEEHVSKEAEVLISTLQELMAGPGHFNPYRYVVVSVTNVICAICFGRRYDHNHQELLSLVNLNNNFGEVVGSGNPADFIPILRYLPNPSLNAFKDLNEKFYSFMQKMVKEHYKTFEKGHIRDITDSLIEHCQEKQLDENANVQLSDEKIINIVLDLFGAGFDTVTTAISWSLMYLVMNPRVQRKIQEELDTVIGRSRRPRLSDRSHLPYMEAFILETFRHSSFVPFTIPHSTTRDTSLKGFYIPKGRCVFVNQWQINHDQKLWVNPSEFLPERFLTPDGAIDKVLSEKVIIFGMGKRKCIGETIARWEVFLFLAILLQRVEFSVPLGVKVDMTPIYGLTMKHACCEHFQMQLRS
# Cytochrome P450 1A2 = biological target: T3, Cytochrome P450 1A2 (Homo sapiens, UniProt P05177); assay: Inhibition of CYP1A2 (unknown origin)
# T3 sequence (P05177 whole entry): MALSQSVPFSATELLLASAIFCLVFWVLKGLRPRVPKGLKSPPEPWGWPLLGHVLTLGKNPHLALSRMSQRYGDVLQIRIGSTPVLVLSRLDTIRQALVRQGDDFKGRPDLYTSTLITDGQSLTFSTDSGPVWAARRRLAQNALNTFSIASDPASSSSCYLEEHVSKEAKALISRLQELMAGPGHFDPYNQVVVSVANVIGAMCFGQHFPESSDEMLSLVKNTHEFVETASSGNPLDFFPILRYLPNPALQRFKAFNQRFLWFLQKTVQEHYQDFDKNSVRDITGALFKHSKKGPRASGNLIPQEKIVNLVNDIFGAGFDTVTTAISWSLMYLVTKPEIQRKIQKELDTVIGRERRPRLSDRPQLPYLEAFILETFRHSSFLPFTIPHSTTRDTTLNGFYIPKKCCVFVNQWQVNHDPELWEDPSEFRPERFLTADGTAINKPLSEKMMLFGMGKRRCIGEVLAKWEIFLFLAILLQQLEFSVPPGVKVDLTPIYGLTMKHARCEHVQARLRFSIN
# CYP1A1 versus CYP1B1 = assay: Selectivity ratio of IC50 for inhibition of CYP1A1 (unknown origin) to IC50 for inhibition of CYP1B1 (unknown origin); details: human; read-out: Ratio IC50
# CYP1A2 versus CYP1B1 = assay: Selectivity ratio of IC50 for inhibition of CYP1A2 (unknown origin) to IC50 for inhibition of CYP1B1 (unknown origin); details: human; read-out: Ratio IC50
SMILES,IC50 (Cytochrome P450 1B1) [µM],IC50 (Cytochrome P450 1A1) [µM],IC50 (Cytochrome P450 1A2) [µM],selectivity ratio (CYP1A1 versus CYP1B1),selectivity ratio (CYP1A2 versus CYP1B1)
FCCOc1nc(-c2ccc(Br)cc2)nc2ccccc12,0.0473,> 1,> 1,> 21.1,> 21.1
O=c1[nH]c(-c2ccc(OCCF)cc2)nc2ccccc12,0.0494,> 1,> 1,> 20.2,> 20.2
O=c1cc(-c2ccccc2)oc2c1ccc1ccccc12 [ALPHA-NAPHTHOFLAVONE],,0.0642,,,
